In patent US11773127B2, “Compounds and methods for treating bacterial infections” (Washington University, priority 2017, dated 2023):
Like-named read-outs stand apart in the source and are kept apart here.

Target: T1, FmlHLD (Escherichia coli, UniProt P77588)
T1 construct: 6xHis (C); made in house; host or cells: E. coli C600, periplasm, pTRC99a
Experiment: biochemical
Format: binding, E. coli
Settings: for inhibition of FmlHLD binding to ds-BSM, in words: soluble compound at 100 μM (0.1 mM); for PI100 (percent inhibition): galactoside at 100 μM, 100 µM; for inhibitory potency against FmlH, in words: ELISA-based competition assay
Description: Thereafter, wells were incubated with 200 μl blocking buffer (PBS+1% BSA) for 2 hours at 23° C., followed by incubation with 100 μl biotinylated FmlHLD diluted in blocking buffer to 20 μg/ml in the presence or absence of the tested compounds for 1 hr at 23° C. After washing 3× with PBS+0.05% TWEEN-20, 100 μl Streptavidin-HRP conjugate (BD Biosciences; 1:2000 dilution in blocking buffer) was added to each well for 1 hr at 23° C. After a final round of washing, plates were developed with 100 μl Tetramethylbenzidine (TMB, BD Biosciences) substrate, quenched within 1-2 min with 50 μl […], and absorbance measured at 450 nm.
Select top hit compounds and few low-scoring analogs from the virtual screening, as well as synthetic galactosides, were tested in the ELISA-based competition assay for their ability to inhibit binding of FmlHLD to ds-BSM. The ELISA assay was performed using the protocol described in Example 18. […] All compounds were tested at 100 μM; a subset was tested at 10 μM; and the strongest subset was additionally tested at 1 μM. […] Percent inhibition (PI) values are reported as the mean with standard error of the mean for galactosides tested at 100 μM (PI100), 10 μM (PI10), and 1 μM (PI1) in the ELISA-based competition assay. […] The “thio” designation indicates a sulfur linkage between the sugar and the aglycone group, the “phospho” designation indicates a phosphate group attached the C6-hydroxyl group on the sugar, and the “uro” designation indicates galacturonide as the sugar.
The ELISA assay was performed using the protocol described in Example 18. All compounds were tested at 1 μM and a subset was additionally tested at 100 nM. Average percent inhibition (PI) values are reported for compounds tested at 1 μM (PI1) and 100 nM (PI0.1).
Briefly, 1 μg bovine submaxillary mucin (Sigma) in 100 uL PBS were incubated with Immulon 4HBX 96-well plates overnight prior to treatment with 1 mU Arthrobacter ureafaciens sialidase for 1 hour at 37° C. to remove terminal sialic acid sugars. Wells were then blocked with 200 μL PBS+1% BSA for 2 hours at room temperature. Biotinylated FmlH^LD was diluted to 20 μg/mL in blocking buffer and incubated in the presence or absence of compounds serially diluted 2× down eight rows for 1 hour at room temperature. Wells were washed three times with PBS 0.05% TWEEN-20 then incubated with 100 μL of streptavidin-HRP conjugate (BD Biosciences; 1:2,000 dilution in blocking buffer) for one hour. After three additional PBS+0.05% TWEEN washes, plates were developed with 100 μL of tetramethylbenzidine (BD Biosciences) substrate and quenched with 50 μL of 1 M H2SO4. Total bound portion concentration was measured by the absorbance at 450 nm. IC50s were determined using the Graphpad Prism software.
The compounds synthesized herein were tested in the ELISA-based competition assay for their ability to inhibit binding of FmlHLD to ds-BSM. The ELISA assay was performed using the protocol described in Example 18. Compounds were tested at […], 1 μM, and 100 nM. as indicated on the table. […] ND means the corresponding value was not determined for this summary (but may be available elsewhere in the Examples).

[1] = read-out: % Inhibition at [μM] [100], compound at 100 μM, inhibition of FmlHLD binding to ds-BSM
[2] = mean with standard error of the mean
[3] = read-out: PI1 (percent inhibition), galactoside at 1 μM, mean with standard error of the mean
[4] = read-out: PI10 (percent inhibition), galactoside at 10 μM, mean with standard error of the mean
[5] = read-out: PI100 (percent inhibition), galactoside at 100 μM, mean with standard error of the mean
[6] = IC50 (μM), Table 5, Gal and GalNAc inhibition of FmlH
[7] = read-out: % Inhibition at [μM] [1], compound at 1 μM, inhibition of FmlHLD binding to ds-BSM
[8] = read-out: PI(1) (average percent inhibition), compound at 1 μM, Table 4
[9] = IC50, inhibition of FmlHLD binding to ds-BSM
[10] = IC50 (μM), Table 6, sulfonamides 3078-3090
[11] = read-out: % Inhibition at [μM] [10], compound at 10 μM, inhibition of FmlHLD binding to ds-BSM

T1 sequence (P77588 25-182): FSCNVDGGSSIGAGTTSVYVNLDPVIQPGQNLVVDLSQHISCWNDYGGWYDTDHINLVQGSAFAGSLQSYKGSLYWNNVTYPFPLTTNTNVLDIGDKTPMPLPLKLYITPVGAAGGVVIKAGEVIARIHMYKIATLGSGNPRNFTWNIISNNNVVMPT

Structure (SMILES): CC(C)S[C@@H]1O[C@H](CO)[C@H](O)[C@H](O)[C@H]1O [IPTG, isopropyl β-thiogalactoside, reference compound]
- inhibition at 100 µM [1]: 23.7%
- inhibition of FmlHLD binding to ds-BSM, in words: minor inhibitory activity

Structure (SMILES): N#Cc1ccccc1O[C@@H]1O[C@H](CO)[C@H](O)[C@H](O)[C@H]1O [Compound 3β, 2-cyanophenyl α/β-D-galactopyranoside]
- PI100 (percent inhibition) [2]: 94.5 ± 0.3%
- inhibition at 1 µM [3]: 12.1 ± 6.3%
- inhibition at 10 µM [4]: 30.4 ± 1.8%
- inhibition at 100 µM [5]: 95%

Structure (SMILES): Cc1c(C)c2ccc(O[C@@H]3O[C@H](CO)[C@H](O)[C@H](O)[C@H]3O)cc2oc1=O [Compound 14β]
- PI100 (percent inhibition) [2]: 89.2 ± 0.4%
- inhibition at 1 µM [3]: 10.2 ± 4.3%
- inhibition at 10 µM [4]: 19.8 ± 3.8%
- inhibition at 100 µM [5]: 89%

Structure (SMILES): CC(=O)N[C@H]1[C@H](Oc2ccccc2-c2cccc(C(N)=O)c2)O[C@H](CO)[C@H](O)[C@@H]1O [AM2033, 2′-(((2S,3R,4R,5R,6R)-3-acetamido-4,5-dihydroxy-6-(hydroxymethyl)tetrahydro-2H-pyran-2-yl)oxy)-[1,1′-biphenyl]-3-carboxamide]
- inhibitory potency against FmlH, in words: equal or slightly reduced potency
- IC50 [6]: 1.65 µM
- inhibition at 1 µM [7]: 3.52%
- inhibition at 1 µM [8]: 3.52%

Structure (SMILES): Cc1ccccc1O[C@H]1O[C@H](CO)[C@H](O)[C@H](O)[C@H]1O [Compound 2α, 2-Methylphenyl α/β-D-Galactopyranoside]
- inhibition at 100 µM [5]: 30 ± 5.4%

Structure (SMILES): Cc1cccc(O[C@@H]2O[C@H](CO)[C@H](O)[C@H](O)[C@H]2NS(C)(=O)=O)c1-c1cccc(NS(C)(=O)=O)c1 [AM2186]
- IC50 [9]: 3.5 µM

Structure (SMILES): CC(=O)N[C@H]1[C@H](Oc2ccc3ccccc3c2-c2cccc(NS(C)(=O)=O)c2)O[C@H](CO)[C@H](O)[C@@H]1O [Compound 3085, N-((2S,3R,4R,5R,6R)-4,5-dihydroxy-6-(hydroxymethyl)-2-((1-(3-(methylsulfonamido)phenyl)naphthalen-2-yl)oxy)tetrahydro-2H-pyran-3-yl)acetamide]
- IC50 [10]: 0.18 µM

Structure (SMILES): CC(=O)N[C@H]1[C@H](Oc2ccccc2-c2cccc(S(C)(=O)=O)c2)O[C@H](CO)[C@H](O)[C@@H]1O [AM2059, N-((2S,3R,4R,5R,6R)-4,5-dihydroxy-6-(hydroxymethyl)-2-((3′-(methylsulfonyl)-[1,1′-biphenyl]-2-yl)oxy)tetrahydro-2H-pyran-3-yl)acetamide]
- inhibitory potency against FmlH, in words: equal or slightly reduced potency
- IC50 [6]: 0.7 µM
- inhibition at 0.1 µM (read-out: % Inhibition at [μM] [0.1], compound at 0.1 μM (100 nM), inhibition of FmlHLD binding to ds-BSM): 0.1%
- inhibition at 1 µM [7]: 23.3%
- inhibition at 0.1 µM (read-out: PI (0.1) (average percent inhibition), compound at 100 nM, Table 4): 0.1%
- inhibition at 1 µM [8]: 23.3%

Structure (SMILES): OC[C@H]1O[C@@H](Oc2ccccc2Cl)[C@H](O)[C@@H](O)[C@H]1O [Compound 154c]
- inhibition at 1 µM [7]: 7.95%
- inhibition at 10 µM [11]: 20.7%
- inhibition at 100 µM [1]: 90.5%

Structure (SMILES): O=[N+]([O-])c1ccc(O[C@@H]2O[C@H](CO[C@@H]3O[C@H](CO)[C@H](O)[C@H](O)[C@H]3O)[C@H](O)[C@H](O)[C@H]2O)cc1 [Gal-b1-6-PNPG, reference compound]
- % Inhibition at [μM] [100] (compound at 100 μM, inhibition of FmlHLD binding to ds-BSM): 19.41%

Structure (SMILES): OC[C@H]1O[C@@H](Oc2c[nH]c3ccccc23)[C@H](O)[C@@H](O)[C@H]1O [Compound 16β]
- PI100 (percent inhibition) [2]: 21.7 ± 2.4%
- inhibition at 100 µM [5]: 22%

Structure (SMILES): OC[C@H]1O[C@@H](Oc2cccc3ccccc23)[C@H](O)[C@@H](O)[C@H]1O [Compound 18β, 1-naphthalenyl α/β-D-galactopyranoside]
- PI100 (percent inhibition) [2]: 45.9 ± 3.7%
- inhibition at 100 µM [5]: 46%

Structure (SMILES): O=c1c(O[C@@H]2O[C@H](CO)[C@H](O)[C@H](O)[C@H]2O)c(-c2cc(O)c(O)c(O)c2)oc2cc(O)cc(O)c12 [MyrG, reference compound]
- inhibition at 100 µM [1]: 10.8%

Structure (SMILES): OC[C@H]1O[C@@H](Oc2c[nH]c3cc(Cl)ccc23)[C@H](O)[C@@H](O)[C@H]1O [Compound 17β]
- PI100 (percent inhibition) [2]: 41.2 ± 3.4%
- inhibition at 100 µM [5]: 41%

Structure (SMILES): O=[N+]([O-])c1ccccc1O[C@@H]1O[C@H](CO)[C@H](O)[C@H](O)[C@H]1O [ONPG, o-nitrophenyl β-galactoside, reference compound]
- inhibition at 1 µM [7]: 14.2%
- inhibition at 10 µM [11]: 31.1%
- inhibition at 100 µM [1]: 93%
- inhibition of FmlHLD binding to ds-BSM, in words: more effectively than Gal, GalNAc, or TF

Structure (SMILES): CC(=O)N[C@H]1[C@H](Oc2cccc(C)c2-c2cccc(NS(=O)(=O)C3CC3)c2)O[C@H](CO)[C@H](O)[C@@H]1O [AM2151]
- IC50 [9]: 0.12 µM

Structure (SMILES): OC[C@H]1O[C@@H](Oc2c[nH]c3ccccc23)[C@H](O)[C@@H](O)[C@H]1O [3-indoxyl Gal, reference compound]
- inhibition at 100 µM [1]: 21.7%

Structure (SMILES): Cc1cccc(O[C@@H]2O[C@H](CO)[C@H](O)[C@H](O)[C@H]2NS(C)(=O)=O)c1-c1cccc(NS(C)(=O)=O)c1 [Compound 3089, N-((2S,3R,4R,5R,6R)-4,5-dihydroxy-6-(hydroxymethyl)-2-((6-methyl-3′-(methylsulfonamido)-[1,1′-biphenyl]-2-yl)oxy)tetrahydro-2H-pyran-3-yl)methanesulfonamide]
- IC50 [10]: 3.5 µM

Structure (SMILES): OC[C@H]1O[C@@H](SCCc2ccccc2)[C@H](O)[C@@H](O)[C@H]1O [Compound 22β-thio]
- inhibition at 10 µM [4]: 2.3 ± 2.5%
- inhibition at 100 µM [5]: 49.8 ± 2.5%

Structure (SMILES): OC[C@H]1O[C@H](Oc2ccc(-c3ccccc3)cc2)[C@H](O)[C@@H](O)[C@H]1O [Compound 114bf1]
- inhibition at 10 µM [11]: 22.6%
- inhibition at 100 µM [1]: 86.5%

Structure (SMILES): CC(=O)N[C@H]1[C@H](Oc2ccccc2[N+](=O)[O-])O[C@H](CO)[C@H](O)[C@@H]1O [ONPG-NAc]
- inhibition at 1 µM [7]: 22.4%
- inhibition at 10 µM [11]: 87.2%
- inhibition at 100 µM [1]: 99.4%

Structure (SMILES): CC(=O)N[C@H]1[C@H](Oc2ccccc2-c2cccc(C(F)(F)F)c2)O[C@H](CO)[C@H](O)[C@@H]1O [AM2037, N-((2S,3R,4R,5R,6R)-4,5-dihydroxy-6-(hydroxymethyl)-2-((3′-(trifluoromethyl)-[1,1′-biphenyl]-2-yl)oxy)tetrahydro-2H-pyran-3-yl)acetamide]
- inhibitory potency against FmlH, in words: equal or slightly reduced potency
- IC50 [6]: 1.51 µM
- inhibition at 1 µM [7]: 15.7%
- inhibition at 1 µM [8]: 15.7%

Structure (SMILES): CC(=O)N[C@H]1[C@H](Oc2ccccc2-c2cc(C(=O)O)cc([N+](=O)[O-])c2)O[C@H](CO)[C@H](O)[C@@H]1O [AM2119]
- IC50 [9]: 1.72 µM

Structure (SMILES): N#Cc1ccccc1O[C@H]1O[C@H](CO)[C@H](O)[C@H](O)[C@H]1O [Compound 3α, 2-cyanophenyl α/β-D-galactopyranoside]
- inhibition at 100 µM [5]: 17.8 ± 6.3%

Structure (SMILES): CC(=O)N[C@H]1[C@H](Oc2ccc3ccncc3c2)O[C@H](CO)[C@H](O)[C@@H]1O [AM2002, N-((2S,3R,4R,5R,6R)-4,5-dihydroxy-6-(hydroxymethyl)-2-(isoquinolin-7-yloxy)tetrahydro-2H-pyran-3-yl)acetamide]
- inhibition at 1 µM [7]: 20.2%
- inhibition at 1 µM [8]: 20.2%

Structure (SMILES): OC[C@H]1O[C@@H](Oc2ccccc2-c2ccccc2)[C@H](O)[C@@H](O)[C@H]1O [Compound 113f2]
- inhibition at 1 µM [7]: 8.1%
- inhibition at 10 µM [11]: 31%
- inhibition at 100 µM [1]: 91.1%

Structure (SMILES): Cc1cc(=O)oc2cc(O[C@@H]3O[C@H](CO)[C@H](O)[C@H](O)[C@H]3O)ccc12 [MUG, reference compound]
- inhibition at 1 µM [7]: 8.73%
- inhibition at 10 µM [11]: 19.7%
- inhibition at 100 µM [1]: 85.2%
